According to patent US11878987B2, “Heterocyclic compound as TRK inhibitor” (Beijing Innocare Pharma Tech Co., Ltd., priority 2018, dated 2024):

Assays:
[1] = target: TRKA (Homo sapiens, UniProt P04629); test: TRKA activity inhibition test (HTRF kinase assay); assay type: biochemical; conditions: humanized recombined TRKA protein, 8.4 μM ATP
Description: TRKA Activity Inhibition Test
The effect of the compounds of the invention on TRKA activity was evaluated by in vitro kinase assays
(§1) The experimental methods were summarized as follows:
The in vitro activity of TRKA was measured by the use of a homogeneous time-resolved fluorescence (HTRF) kinase assay kit (Cisbio, NO. 62TKOPEC) through detecting the phosphorylation level of the substrate in the kinase reaction. The reaction buffer contained the following components: reaction buffer of the enzyme in the kit (1×), 5 mM MgCl2, 1 mM DTT; The humanized recombined TRKA protein was expressed and purified by the purification and identification platform of Tsinghua university, and was diluted into kinase solution (3 ng/μl) with the reaction buffer. The substrate reaction solution comprised 0.23 μM biotin-labeled tyrosine kinase substrate and 8.4 μM ATP, which was diluted with reaction buffer. The detection buffer comprised 0.1 ng/μL cage antibody labelled with Eu3+ and 14.375 nM XL665 labeled with streptavidin, which was diluted with reaction buffer.
The compound was dissolved into 100% DMSO and diluted to 100 or 10 μM, then diluted with DMSO in 4 times serial dilution to a minimum concentration of 6.1 or 0.61 nM, and each concentration point was further diluted 40 times with the reaction buffer.
To the 384 well plate (Corning No. 4512), 4 μl of the solution of the test compound and 2 μl of the solution of TRKA kinase were added respectively, then mixed well and incubated at room temperature for 15 minutes. 4 μl of the solution of substrate was then added and the reaction mixture was incubated at room temperature for 60 minutes. A 10 μl detection buffer of the same volume as the reaction mixture was then added, the mixture was mixed well and allowed to stand for 30 minutes at room temperature. The reaction process was monitored at the wavelengths of 620 nm and 665 nm by Envision board reader (Perkin Elmer). The ratio of 665/620 was positively correlated with the phosphorylation level of the substrate, then TRKA kinase activity was determined. […] The inhibition percentage of the test compound on the TRKA activity can be calculated by the following formula: The IC50 value of the compound was calculated at 8 concentration points by use of XLfit software (ID Business Solutions Ltd. UK) through the following formula: Y=Bottom+(Top−Bottom)/(1+10^((log IC50−X)*slope factor)) Of which Y is the inhibition percentage; X is the logarithm of the concentration of the compound to be tested; Bottom is the […] inhibition percentage; Top is the […] inhibition percentage; slope factor is the slope coefficient of the curve.

[2] = target: T1, TRKA G667C (Homo sapiens, UniProt P04629, G667C); test: TRKA G667C activity inhibition test (HTRF kinase assay); assay type: biochemical; conditions: humanized recombined TRKA G667C protein, 2.7 μM ATP
T1 construct: purchased Signal Chem Life Sciences N16-12 CG
Description: TRKA G667C Activity Inhibition Test:
The effect of the compounds of the invention on the activity of TRKA G667C was evaluated by the in vitro kinase assay.
The experimental methods were summarized below:
The in vitro activity of TRKA G667C was measured using a HTRF kinase assay kit (Cisbio, No. 62TKOPEC) by detecting the phosphorylation level of the substrate in the kinase reaction.
The reaction buffer contained the following components: reaction buffer of the enzyme in the kit (1×), 5 mM MgCl2, 1 mM DTT. The humanized recombined TRKA G667C protein (No. N16-12 CG, Signal Chem Life Sciences) was diluted into 0.09 ng/μl kinase solution with the reaction buffer. […]
4 μl of solution of the test compound and 2 μl of solution of TRKA G667C kinase were added to the 384 well plate (Corning No. 4512), mixed well and incubated at room temperature for 15 minutes. […] The reaction process was monitored at the wavelength of 620 nm and 665 nm by Envision board reader (Perkin Elmer). The ratio of 665/620 was positively correlated with the phosphorylation level of the substrate, then TRKA G667C kinase activity was determined. […]
The IC50 value of the compound was calculated at 8 concentration points by XLfit (ID Business Solutions Ltd. UK) software through the following formula: Y=Bottom+(Top−Bottom)/(1+10^((log IC50−X)*slope factor)) […]

[3] = target: T2, TRKA G595R (Homo sapiens, UniProt P04629, G595R); test: TRKA G595R activity inhibition test (HTRF kinase assay); assay type: biochemical; conditions: humanized recombined TRKA G595R protein, 2.9 μM ATP
T2 construct: purchased Signal Chem Life Sciences N16-12BG
Description: TRKA G595R Activity Inhibition Test:
The effect of the compounds of the invention on the activity of TRKA G595R was evaluated by the in vitro kinase assay.
The experimental method was summarized below:
The in vitro activity of TRKA G595R was measured using a HTRF kinase assay kit (Cisbio, No. 62TKOPEC) by detecting the phosphorylation level of the substrate in the kinase reaction. The reaction buffer contained the following components: the reaction buffer of the enzyme in the kit (1×), 5 mM MgCl2, 1 mM DTT. The humanized recombined TRKA G595R protein (No. N16-12BG, purchased from Signal Chem Life Sciences) was diluted into 0.25 ng/kinase solution with the reaction buffer. The substrate reaction solution comprised 0.51 μM biotin-labeled tyrosine kinase substrate and 2.9 μM ATP, which was diluted with reaction buffer. The detection buffer comprised 0.15 ng/μL cage antibody labelled with Eu3+ and 31.875 nM XL665 labeled with streptavidin, which was diluted with reaction buffer.
The compound was dissolved into 100% DMSO and diluted to 1 mM or 100 μM, then diluted with DMSO in 4 times serial dilution to a minimum concentration of 61 or 6.1 nM, and each concentration point was further diluted 40 times with the reaction buffer.
4 μl of solution of the test compound and 2 μl of solution of TRKA G595R kinase were added to the 384 well plate (Corning No. 4512), mixed well and incubated at room temperature for 15 minutes. Then 4 μl of solution of substrate was added and the reaction mixture was incubated at room temperature for 60 minutes. 10 μl of detection buffer of the same volume as the reaction mixture was then added, the reaction mixture was mixed well and allowed to stand for 30 minutes at room temperature. The reaction process was monitored at the wavelength of 620 nm and 665 nm by Envision board reader (Perkin Elmer). The ratio of 665/620 was positively correlated with the phosphorylation level of the substrate, then TRKA G595R kinase activity was determined. In this experiment, the group without TRKA G595R kinase was used as the negative control (100% inhibition), the group with TRKA G595R but without the test compound was used as the positive control (0% inhibition). The inhibition percentage of the test compound on TRKA G595R activity can be calculated by the following formula: Inhibition percentage=100−100*(signal value of the test compound under specific concentration−signal value of the negative control)/(signal value of the positive control−signal value of the negative control) The IC50 value of the test compound was calculated at 8 concentration points by use of XLfit (ID Business Solutions Ltd. UK) software through the following formula: Y=Bottom+(Top−Bottom)/(1+10^((log IC50−X)*slope factor)) […]

[4] = test system: KM12 cells; test: KM12 cell proliferation, luminescent cell viability test (CellTiter-Glo); assay type: cell-based; conditions: Homo sapiens, 96 hours, CTG
Description: Determination of Median Effective Inhibition Concentration GI50 in KM12 Cells
The effect of the compounds of the invention on the proliferation of KM12 cells was evaluated by the luminescent cell viability test.
as §1
CellTilter-Glo (CTG) detection kit was used. A unique and stable luciferase was used to detect ATP, an indicator of viable cell metabolism. The luminescence signal generated in the experiment was proportional to the number of viable cells in the culture medium, thus the proliferation of KM12 cells was detected.
KM12 cell (purchased from Shanghai Xinyu biological Co.) was cultured in IMDM complete medium (Thermo Fisher, 12440053) containing 10% FBS (GBICO, 10099-141) and 100 units/ml of penicillin streptomycin mixture (Thermofisher, 15140122). When the cell coverage rate in the culture container reached 80-90%, 0.25% trypsin (containing EDTA) (Thermofisher, 25200056) was used to digest and disperse the cells, then they were planted in a white 384 well plate (164610). To each well containing 1000 cells was added 27 μL IMDM complete medium. Then the 384 well plate was cultured overnight in an incubator containing 5% CO2 at 37° C. The compound was dissolved into 100% DMSO and diluted to 1 mM, then diluted with DMSO in 4 times serial dilution to the lowest concentration of 0.061 μM. Each concentration point was further diluted 50 times with IMDM medium. If the IC50 value of the compound was very low, the initial concentration of the compound can be reduced. 3 μl Diluted compound was added into each well, centrifuged and mixed well gently. The medium without cells was used as negative control (100% inhibition), and the group with 0.2% DMSO was used as positive control (0% inhibition).
The 384 well plate was placed in the incubator at 37° C. and 5% CO2 for further incubation. After 96 hours, the plate was taken out and placed at room temperature for 30 minutes. […] Then the cold light signal was read by Envision (Perkin Elmer). […]
The percentage of inhibition of KM12 cell proliferation by the compounds can be calculated by the following formula: Inhibition percentage=100−100*{[(Signalcompound−Signalnegative control)−T0control]/[(Signalpositive control−Signalnegative control)−T0control]}
The IC50 values of compounds were calculated by XLfit (ID Business Solutions Ltd., UK) software at 8 concentration points through the following formula: Y=Bottom+(Top−Bottom)/(1+10^((Log IC50−X)*slope factor))
Of which, Y is the inhibition percentage, Bottom is the bottom plateau of the curve (the bottom platform value of S curve), Top is the top plateau of the curve (the top platform value of S curve), X is the logarithm of the concentration of the compound to be measured.

[5] = early clinical trials, cited from earlier work

T2 sequence (P04629 33-796 G595R): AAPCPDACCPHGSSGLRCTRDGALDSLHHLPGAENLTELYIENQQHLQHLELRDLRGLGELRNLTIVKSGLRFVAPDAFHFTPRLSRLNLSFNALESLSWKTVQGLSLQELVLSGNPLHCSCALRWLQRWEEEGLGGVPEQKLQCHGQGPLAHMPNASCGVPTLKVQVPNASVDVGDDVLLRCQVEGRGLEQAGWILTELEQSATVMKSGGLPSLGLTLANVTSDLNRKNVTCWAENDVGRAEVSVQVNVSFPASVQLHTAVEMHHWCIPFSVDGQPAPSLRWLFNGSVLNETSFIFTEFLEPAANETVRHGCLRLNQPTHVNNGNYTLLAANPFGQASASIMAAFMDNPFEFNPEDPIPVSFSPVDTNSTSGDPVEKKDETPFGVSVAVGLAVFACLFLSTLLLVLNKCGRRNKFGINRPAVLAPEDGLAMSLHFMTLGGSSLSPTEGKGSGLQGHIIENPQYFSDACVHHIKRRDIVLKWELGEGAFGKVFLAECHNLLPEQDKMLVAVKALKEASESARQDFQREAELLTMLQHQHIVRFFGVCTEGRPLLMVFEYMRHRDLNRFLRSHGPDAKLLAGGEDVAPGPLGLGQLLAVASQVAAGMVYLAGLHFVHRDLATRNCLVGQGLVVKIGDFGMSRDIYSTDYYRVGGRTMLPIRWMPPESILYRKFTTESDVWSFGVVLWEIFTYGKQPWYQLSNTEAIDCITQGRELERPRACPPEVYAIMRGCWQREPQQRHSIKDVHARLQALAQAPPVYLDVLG
Sequence of TRKA (P04629 33-796): as the sequence (P04629 33-796 G595R) above, with R563G counted along it
T1 sequence (P04629 33-796 G667C): as the sequence (P04629 33-796 G595R) above, with R563G, G635C counted along it

IC50 [1]	IC50 [2]	IC50 [3]	SMILES	GI50 [4]	patients in complete remission ([5]; 6 patients, no tumor detectable by existing methods)	patients who achieved objective responses ([5]; 38 patients)	patients in remission for more than a year [5]
0.24 nM	1.63 nM	0.26 nM	C[C@H]1CNC(=O)Nc2cnn3ccc(nc23)N2C[C@@H](F)C[C@@H]2c2cc(F)cnc2O1 [Compound 1, (2^2R,2^4S,5S)-2^4,3^5-difluoro-5-methyl-4-oxa-7,9-diaza-1(5,3)-pyrazolo[1,5-a]pyrimidin-3(3,2)-pyridin-2(1,2)-pyrrolidincyclononan-8-one]	0.43 nM			
0.97 nM	16.3 nM	12.2 nM	O=C1NCCOc2ncc(F)cc2[C@H]2C[C@H](F)CN2c2ccn3ncc(c3n2)N1 [Compound 2, (2^2R,2^4S)-2^4,3^5-difluoro-4-oxa-7,9-diaza-1(5,3)-pyrazolo[1,5-a]pyrimidin-3(3,2)-pyridin-2(1,2)-pyrrolidincyclononan-8-one]	3.12 nM			
1.46 nM		10.2 nM	CN1CCOc2ncc(F)cc2[C@H]2C[C@H](F)CN2c2ccn3ncc(c3n2)NC1=O [Compound 3, (2^2R,2^4S)-2^4,3^5-difluoro-7-methyl-4-oxa-7,9-diaza-1(5,3)-pyrazolo[1,5-a]pyrimidin-3(3,2)-pyridin-2(1,2)-pyrrolidincyclononan-8-one]	33.7 nM			
1.08 nM		1.4 nM	C[C@H]1CCNC(=O)Nc2cnn3ccc(nc23)N2CCC[C@@H]2c2cc(F)cnc2O1 [Compound 4, (2^2R,5S)-3^5-fluoro-5-methyl-4-oxa-8,10-diaza-1(5,3)-pyrazolo[1,5-a]pyrimidin-3(3,2)-pyridin-2(1,2)-pyrrolidincyclodecan-9-one]	2.26 nM			
			O=C(Nc1cnn2ccc(N3CCC[C@@H]3c3cc(F)ccc3F)nc12)N1CC[C@H](O)C1 [larotrectinib]		12%	76%	30 patients
